Source: patent US20130029942A1, “COMPOUNDS AND THERAPEUTICAL USES THEREOF” (Myrexis, Inc., priority 2003, published 2013)

The compounds below were run on T-47D cells (assay: Caspase cascade activation / induction of apoptosis in T-47D cells (fluorogenic N-(Ac-DEVD)-N'-ethoxycarbonyl-R110 substrate)). Conditions: Homo sapiens, T47D; T-47D, 24 hr; read-out: T-47D (24 hr) EC50.
Format: cell-based, human

Row | Structure (SMILES) | EC50
1 | COc1cc2nc(Cl)nc(N(C)c3ccc(C)cc3)c2cc1OC [Example 22, (2-Chloro-6,7-dimethoxyquinazolin-4-yl)-(4-methyl-phenyl)-methyl-amine] | > 10 µM
2 | COc1ccc(N(C)c2nc(NCCN3CCOCC3)nc3cc(OC)c(OC)cc23)cc1 [Example 23, 6,7-Dimethoxy-N^4-(4-methoxy-phenyl)-N^4-methyl-N^2-(2-morpholin-4-yl-ethyl)-quinazoline-2,4-diamine] | > 10 µM
3 | COc1ccc(N(C)c2nc(NC/C=C(\C)CCC=C(C)C)nc3cc(OC)c(OC)cc23)cc1 [Example 24, 6,7-Dimethoxy-N^2-(3,7-dimethyl-octa-2,6-dienyl)-N^4-(4-methoxy-phenyl)-N^4-methyl-quinazoline-2,4-diamine] | > 10 µM
4 | COc1ccc(Nc2nc(Cl)nc3ccccc23)cn1 [Example 28, (2-Chloro-quinazolin-4-yl)-(6-methoxy-pyridin-3-yl)-amine] | > 10 µM
5 | COc1ccc(N(c2nc(Cl)nc3ccccc23)C(C)C)cc1 [Example 37, (2-Chloro-quinazolin-4-yl)-isopropyl-(4-methoxy-phenyl)-amine] | 2.69 µM
6 | COc1ccc(N(c2nc(Cl)nc3ccccc23)C2CCCCC2)cc1 [Example 38, (2-Chloro-quinazolin-4-yl)-cyclohexyl-(4-methoxy-phenyl)-amine] | 2.93 µM
7 | COc1cccc(N(C)c2nc(Cl)nc3ccccc23)c1OC [Example 39, (2-Chloro-quinazolin-4-yl)-(2,3-dimethoxy-phenyl)-methyl-amine] | 0.693 µM
8 | COc1ccc(N(C)c2nc(NCCc3c[nH]cn3)nc3ccccc23)cc1 [Example 46, N^2-[2-(1H-Imidazol-4-yl)-ethyl]-N^4-(4-methoxy-phenyl)-N^4-methyl-quinazoline-2,4-diamine] | 2.18 µM
9 | COc1ccc(N(C)c2nc(N)nc3ccccc23)cn1 [Example 49, N^4-(6-methoxypyridin-3-yl)-N^4-methyl-quinazoline-2,4-diamine] | 0.029 µM
10 | COc1ccc(N(C)c2ccnc3ccccc23)cc1 [Example 66, (4-Methoxy-phenyl)-methyl-(quinolin-4-yl)-amine] | 0.018 µM
11 | COc1ccc(N(C)c2nc(CCl)nc3ccccc23)cc1 [Example 73, (2-Chloromethyl-quinazolin-4-yl)-(4-methoxy-phenyl)-methyl-amine] | 0.679 µM
12 | COc1ccc(N(C)c2nc(CO)nc3ccccc23)cc1 [Example 76] | 0.007 µM
13 | COc1ccc(N(C)c2nc(CN(C)C)nc3ccccc23)cc1 [Example 77, (2-Dimethylaminomethyl-quinazolin-4-yl)-(4-methoxy-phenyl)-methyl-amine] | 0.7 µM
14 | Cc1nc(Nc2ccc(OC(F)F)cc2)c2ccccc2n1 [Example 78, (4-Difluoromethoxy-phenyl)-(2-methyl-quinazolin-4-yl)-amine] | > 10 µM
15 | COc1ccc(Nc2nc(C)nc3ccccc23)cc1F [Example 79, (3-Fluoro-4-methoxy-phenyl)-(2-methyl-quinazolin-4-yl)-amine] | > 10 µM
16 | Cc1nc(Nc2ccc(OC(C)C)cc2)c2ccccc2n1 [Example 80, (4-Isopropoxy-phenyl)-(2-methyl-quinazolin-4-yl)-amine] | 5.75 µM
17 | CCc1ccc(Nc2nc(C)nc3ccccc23)cc1 [Example 81, (4-Ethyl-phenyl)-(2-methyl-quinazolin-4-yl)-amine] | > 10 µM
18 | COc1cc(OC)c(Nc2nc(C)nc3ccccc23)c(OC)c1 [Example 82, (2-Methyl-quinazolin-4-yl)-(2,4,6-trimethoxy-phenyl)-amine] | > 10 µM
19 | Cc1nc(N(C)c2ccc(OC(F)F)cc2)c2ccccc2n1 [Example 84, (4-Difluoromethoxy-phenyl)-(2-methyl-quinazolin-4-yl)-methyl-amine] | 0.008 µM
20 | COc1ccc(N(C)c2nc(C)nc3ccccc23)cc1F [Example 85, (3-Fluoro-4-methoxy-phenyl)-(2-methyl-quinazolin-4-yl)-methyl-amine] | 0.002 µM

Same assay, conditions: Homo sapiens, T47D; T-47D, 48 hr; read-out: T-47D (48 hr) EC50

Row | Structure (SMILES) | EC50
21 | COc1cc2nc(Cl)nc(N(C)c3ccc(C)cc3)c2cc1OC [Example 22, (2-Chloro-6,7-dimethoxyquinazolin-4-yl)-(4-methyl-phenyl)-methyl-amine] | > 10 µM
22 | COc1ccc(N(C)c2nc(NCCN3CCOCC3)nc3cc(OC)c(OC)cc23)cc1 [Example 23, 6,7-Dimethoxy-N^4-(4-methoxy-phenyl)-N^4-methyl-N^2-(2-morpholin-4-yl-ethyl)-quinazoline-2,4-diamine] | > 10 µM
23 | COc1ccc(N(C)c2nc(NC/C=C(\C)CCC=C(C)C)nc3cc(OC)c(OC)cc23)cc1 [Example 24, 6,7-Dimethoxy-N^2-(3,7-dimethyl-octa-2,6-dienyl)-N^4-(4-methoxy-phenyl)-N^4-methyl-quinazoline-2,4-diamine] | 9.46 µM
24 | COc1ccc(CN(C)c2nc(Cl)nc3ccccc23)cc1 [Example 26, (2-Chloro-quinazolin-4-yl)-(4-methoxy-benzyl)-methyl-amine] | 0.178 µM
25 | Clc1nc(Nc2ccncc2)c2ccccc2n1 [Example 27, (2-Chloro-quinazolin-4-yl)-pyridin-4-yl-amine] | > 10 µM
26 | COc1ccc(Nc2nc(Cl)nc3ccccc23)cn1 [Example 28, (2-Chloro-quinazolin-4-yl)-(6-methoxy-pyridin-3-yl)-amine] | > 10 µM
27 | COc1cccc(Nc2nc(Cl)nc3ccccc23)c1OC [Example 29, (2-Chloro-quinazolin-4-yl)-(2,3-dimethoxy-phenyl)-amine] | > 10 µM
28 | COc1ccc(Nc2nc(Cl)nc3ccccc23)c(OC)c1 [Example 30, (2-Chloro-quinazolin-4-yl)-(2,4-dimethoxy-phenyl)-amine] | > 10 µM
29 | COc1cccc(Nc2nc(Cl)nc3ccccc23)c1 [Example 32, (2-Chloro-quinazolin-4-yl)-(3-methoxy-phenyl)-amine] | > 10 µM
30 | COc1ccccc1Nc1nc(Cl)nc2ccccc12 [Example 33, (2-Chloro-quinazolin-4-yl)-(2-methoxy-phenyl)-amine] | > 10 µM
31 | CCN(c1ccc(OC)cc1)c1nc(Cl)nc2ccccc12 [Example 40, (2-Chloro-quinazolin-4-yl)-ethyl-(4-methoxy-phenyl)-amine] | 0.047 µM
32 | COc1ccc(N(c2nc(Cl)nc3ccccc23)C2CCCC2)cc1 [Example 45, (2-Chloro-quinazolin-4-yl)-cyclopentyl-(4-methoxy-phenyl)-amine] | > 10 µM
33 | COc1ccc(N(C)c2nc(NCCc3c[nH]cn3)nc3ccccc23)cc1 [Example 46, N^2-[2-(1H-Imidazol-4-yl)-ethyl]-N^4-(4-methoxy-phenyl)-N^4-methyl-quinazoline-2,4-diamine] | 2.27 µM
34 | COc1ccc(N(C)c2nc(NCCCN(C)C)nc3ccccc23)cc1 [Example 47, N^2-(3-Dimethylamino-propyl)-N^4-(4-methoxy-phenyl)-N^4-methyl-quinazoline-2,4-diamine] | 0.187 µM
35 | COc1ccc(N(C)c2nc(NCCO)nc3ccccc23)cn1 [Example 48, N^2-(2-Hydroxyethyl)-N^4-(6-methoxypyridin-3-yl)-N^4-methyl-quinazoline-2,4-diamine] | 0.137 µM
36 | COc1ccc(N(C)c2nc(N)nc3ccccc23)cn1 [Example 49, N^4-(6-methoxypyridin-3-yl)-N^4-methyl-quinazoline-2,4-diamine] | 0.022 µM
37 | COc1ccc(N(C)c2nc(NCCO)nc3cc(OC)c(OC)cc23)cc1 [Example 50, N^2-(2-Hydroxyethyl)-N^4-(4-methoxy-phenyl)-N^4-methyl-6,7-dimethoxyquinazoline-2,4-diamine] | > 10 µM
38 | COc1ccc(N(C)c2nc(Cl)nc3[nH]cnc23)cc1 [Example 51, (2-Chloro-9H-purin-6-yl)-(4-methoxy-phenyl)-methyl-amine] | > 10 µM
39 | COC(=O)c1ccc(N(C)c2nc(Cl)nc3ccccc23)cc1 [Example 52, (2-Chloro-quinazolin-4-yl)-(4-methylcarboxyphenyl)-methyl-amine] | 0.006 µM
40 | CN(c1ccc(O)cc1)c1nc(Cl)nc2ccccc12 [Example 54, (2-Chloro-quinazolin-4-yl)-(4-hydroxyphenyl)-methylamine] | 0.046 µM

Row | Structure (SMILES) | EC50
41 | COc1ccc(N(C)c2nc(CF)nc3ccccc23)cc1 [Example 55, (2-Fluoromethyl-quinazolin-4-yl)-(4-methoxy-phenyl)-methyl-amine] | 0.001 µM
42 | COc1ccc(N(C)c2nc(Cl)nc3ccc(C)cc23)cc1 [Example 56, (2-Chloro-6-methyl-quinazolin-4-yl)-(4-methoxy-phenyl)-methyl-amine] | 0.005 µM
43 | COc1ccc(N(C)c2nc(Cl)nc3cc(C)ccc23)cc1 [Example 57, (2-Chloro-7-methyl-quinazolin-4-yl)-(4-methoxy-phenyl)-methyl-amine] | 0.432 µM
44 | COc1ccc(N(C)c2nc(Cl)nc3cccc(C)c23)cc1 [Example 58, (2-Chloro-5-methyl-quinazolin-4-yl)-(4-methoxy-phenyl)-methyl-amine] | 0.001 µM
45 | COc1ccc(N(C)c2nc(Cl)nc3c(C)cccc23)cc1 [Example 59, (2-Chloro-8-methyl-quinazolin-4-yl)-(4-methoxy-phenyl)-methyl-amine] | 0.011 µM
46 | COc1ccc(N(C)c2nc(Cl)nc3ccc(Cl)cc23)cc1 [Example 60, (2,6-Dichloro-quinazolin-4-yl)-(4-methoxy-phenyl)-methyl-amine] | 0.013 µM
47 | COc1ccc(N(C)c2nc(N(C)c3ccc(OC)cc3)c3cc(Cl)ccc3n2)cc1 [Example 61, 6-Chloro-N^2,N^4-bis-(4-methoxy-phenyl)-N^2,N^4-dimethyl-quinazoline-2,4-diamine] | 4.05 µM
48 | COc1ccc(N(C)c2nc(Cl)nc3cc(Cl)ccc23)cc1 [Example 62, (2,7-Dichloro-quinazolin-4-yl)-(4-methoxy-phenyl)-methyl-amine] | 0.316 µM
49 | COc1ccc(N(C)c2nc(N(C)c3ccc(OC)cc3)c3c(Cl)cccc3n2)cc1 [Example 63, 5-Chloro-N^2,N^4-bis-(4-methoxy-phenyl)-N^2,N^4-dimethyl-quinazoline-2,4-diamine] | 0.427 µM
50 | COc1ccc(N(C)c2nc(OC(C)C)nc3cccc(Cl)c23)cc1 [Example 64, (5-Chloro-2-isopropoxy-quinazolin-4-yl)-(4-methoxy-phenyl)-methyl-amine] | > 10 µM
51 | COc1ccc(N(C)c2ccnc3ccccc23)cc1 [Example 66, (4-Methoxy-phenyl)-methyl-(quinolin-4-yl)-amine] | 0.022 µM
52 | CN(c1ccc2c(c1)OCO2)c1nc(Cl)nc2ccccc12 [Example 67, (2-Chloro-quinazolin-4-yl)-(3,4-methylenedioxyphenyl)-methyl-amine] | 0.038 µM
53 | COc1ccc(N(C)c2nc(Cl)nc3ccccc23)cc1OC [Example 68, (2-Chloro-quinazolin-4-yl)-(3,4-dimethoxy-phenyl)-methyl-amine] | 0.004 µM
54 | CN(c1ccc(Oc2ccccc2)cc1)c1nc(Cl)nc2ccccc12 [Example 69, (2-Chloro-quinazolin-4-yl)-(4-phenoxy-phenyl)-methyl-amine] | > 1 µM
55 | CCCOc1ccc(N(C)c2nc(Cl)nc3ccccc23)cc1 [Example 70, (2-Chloro-quinazolin-4-yl)-(4-propoxy-phenyl)-methyl-amine] | 0.042 µM
56 | COc1ccc(Oc2ncnc3ccccc23)cc1 [Example 71, 4-(4-Methoxy-phenoxy)-quinazoline] | 2.27 µM
57 | COc1ccc(N(C)c2nc(CCl)nc3ccccc23)cc1 [Example 73, (2-Chloromethyl-quinazolin-4-yl)-(4-methoxy-phenyl)-methyl-amine] | 0.543 µM
58 | COc1ccc(N(C)c2nc(CO)nc3ccccc23)cc1 [Example 76] | 0.008 µM
59 | COc1ccc(N(C)c2nc(CN(C)C)nc3ccccc23)cc1 [Example 77, (2-Dimethylaminomethyl-quinazolin-4-yl)-(4-methoxy-phenyl)-methyl-amine] | 2.11 µM
60 | COc1ccc(N(C)c2nc(-c3ccccc3)nc3ccccc23)cc1 [Example 83, (4-Methoxy-phenyl)-(2-phenyl-quinazolin-4-yl)-methyl-amine] | 0.168 µM
